Measured values from patent publication US11512056B2 (Anhui New Star Pharmaceutical Development Co., Ltd, priority 2018, dated 2022).
Several values for one entry are separate records, joined by “and”; a condition that tells them apart may be missing. Equal entries are not always repeated.

How the values were obtained:
[1] = test system: human platelets; assay: ADP-induced aggregation of human platelets (PRP, turbidimetric); type: cell-based; conditions: for IC50: read-out: IC50 of compound on ADP-induced platelet aggregation rate
Procedure: Volunteers' whole blood was drawn from venous blood with 1:6 dextro-citrate ACD (85 mmol/L sodium citrate, 71.38 mmol/L citrate, 27.78 mmol/L glucose) for anticoagulation, and centrifuged at 300 g at room temperature for 10 minutes, platelet rich plasma (PRP) was separated.
(§1) The turbidimetric platelet aggregation test was performed on the Chrono-Log Company's dual-channel optical platelet aggregation instrument. The speed of the icon recorder was set to 1 cm/min, and the aggregation curve was recorded. First, the platelet aggregator was preheated to 37° C., 400 μL platelet suspension and stir bar were added to the turbidity tube, use PPP as a reference, and traced the baseline under constant magnetic stirring at 37° C. After the baseline was stable, with experiment plan, different concentrations of antagonists or other reagents were added to treat platelets for 2 minutes, and then the inducer ADP was added to observe and record changes in the aggregation curve.

[2] = test system: human platelets; assay: Collagen-induced aggregation of human platelets (PRP, turbidimetric); type: cell-based
Procedure: Volunteers' whole blood was drawn from venous blood with 1:6 dextro-citrate ACD (85 mmol/L sodium citrate, 71.38 mmol/L citrate, 27.78 mmol/L glucose) for anticoagulation, and centrifuged at 300 g at room temperature for 10 Minutes, separate platelet rich plasma (PRP).
The turbidimetric platelet aggregation test was performed on the Chrono-Log Company's dual-channel optical platelet aggregation instrument. The speed of the icon recorder was set to 1 cm/min, and the aggregation curve was recorded. First, the platelet aggregator was preheated to 37° C., and 400 μL platelet suspension and stir bar were added to the turbidity tube, PPP was used as a reference, and traced the baseline under constant magnetic stirring at 37° C. After the baseline was stable, with the experiment plan, different concentrations of antagonist or other reagents were added to treat platelets for 2 minutes, and then inducer collagen was added to observe and record changes in the aggregation curve.
The platelet aggregation rate of the solvent control group was set to be 100%. The inhibitory effects of the compounds on normal human platelet aggregation induced by collagen at different concentrations were as follows: […]

[3] = test system: platelets (rabbit blood); assay: Inhibition of platelet aggregation in vitro (rabbit blood), ADP-induced, turbidimetric; type: cell-based, New Zealand white rabbits; conditions: Oryctolagus cuniculus, rabbit PRP, ADP final concentration 10 μM
Description: Blood was collected from New Zealand white rabbits (body weight 1-1.5 kg). After the animal was anesthetized with 10% chloral hydrate, the animal was placed supinely on the rabbit board, precordial hair was cut off, and the skin was disinfected with iodine and alcohol. Touch with left hand the 3rd to 4th intercostal space on the left edge of the sternum. Chose the most obvious place for the puncture point. Held the syringe in right hand and insert the needle into the chest cavity. Inserted the needle into the heart and then draw out the blood when feel the heart beating through the needle. […] assay system with a total volume of 300 μL, that is, 280 μL of diluted PRP was taken and placed in a turbidimetric tube, and was incubated with 10 μL of drug or solvent control at 37° C. for 5 minutes, and then 10 μL of different inducers such ADP (final concentration 10 μM) were added to determine the maximum platelet aggregation rate within 5 minutes. Repeation was taken at least three times […].
Platelet-rich plasma (PRP) was obtained by centrifuging blood at 1200 rpm for 10 minutes, and platelet aggregation was measured as described above. […] The platelet density in PRP is counted with a hemocytometer and diluted with platelet-poor plasma (PPP). […]

[4] = test system: arterial thrombosis; assay: SD male rat arteriovenous short circuit thrombosis model (A-V shunt); type: in vivo, male SD rats
Procedure: Cut the surgical wire with a length of 6 cm, weigh and recorded it on an analytical balance (about 2 mg dry weight), and placed it in a thick polyethylene tube with a length of 6 cm. Inserted a thin tube at each end of the thick tube spare. Male SD rats were intragastrically administered for 4 hours, anesthetized with pentobarbital 60 mg/kg, separated the common carotid artery and common jugular vein, connected the arteries and veins with the above polyethylene tube, opened the blood flow for 15 minutes, removed the surgical line and weighed (WW).

[5] = test system: human platelets; assay: Thrombin-induced human platelet aggregation (PRP, turbidimetric); type: cell-based; conditions: for IC50: read-out: IC50 on thrombin-induced platelet aggregation rate
Procedure: Volunteers' whole blood was drawn from venous blood with 1:6 D-citrate ACD (85 mmol/L sodium citrate, 71.38 mmol/L citrate, 27.78 mmol/L glucose) for anticoagulation, and centrifuged at 300 g at room temperature for 10 minutes, platelet rich plasma (PRP) was separated.
as §1, with “C., and” for “C.,”, “tube,” for “tube, use”, “PPP was used” for “PPP”, “baseline is” for “baseline was”, “with the” for “with”

[6] = Homo sapiens, Platelet, column 1
[7] = Homo sapiens, Platelet, column 2
[8] = Homo sapiens, Platelet, column 3

## CC1CC(=O)NN=C1c1ccc(NC(=N)N)cc1 (stereo not shown) [No. 1, 1-(4-(4-methyl-6-oxo-1,4,5,6-tetrahydropyridazin-3-yl)phenyl)guanidine]
[1]; 10 μM ADP, concentration 0.03 μM, listed as Compound No.1
  Aggregation inhibition rate %: 17.39%
[1]; 10 μM ADP, concentration 0.03 μM, listed as No.1 Compound
  Aggregation inhibition rate %: 49.01%
[1]; 10 μM ADP, concentration 0.1 μM
  Aggregation inhibition rate %: 37.68%
[1]; 10 μM ADP, concentration 0.3 μM, listed as Compound No.1
  Aggregation inhibition rate %: 39.13%
[1]; 10 μM ADP, concentration 0.3 μM, listed as No.1 Compound
  Aggregation inhibition rate %: 62.74%
[1]; 10 μM ADP, concentration 1 μM, listed as Compound No.1
  Aggregation inhibition rate %: 42.02%
[1]; 10 μM ADP, concentration 1 μM, listed as No.1 Compound
  Aggregation inhibition rate %: 66.67%
[1]; 10 μM ADP, concentration 3 μM
  Aggregation inhibition rate %: 51.88%
[1]; Homo sapiens, Platelet, 10 μM ADP, concentration 0.005 μM, read-out: Aggregation inhibition rate %
  inhibition at 0.005 µM: 2.99%
[1]; Homo sapiens, Platelet, 10 μM ADP, concentration 0.01 μM, read-out: Aggregation inhibition rate %
  inhibition at 0.01 µM: 8.69%
[1]; Homo sapiens, Platelet, 10 μM ADP, concentration 0.1 μM, read-out: Aggregation inhibition rate %
  inhibition at 0.1 µM: 43.1%
[1]; Homo sapiens, Platelet, 10 μM ADP, concentration 3 μM, read-out: Aggregation inhibition rate %
  inhibition at 3 µM: 71.6%
[1]; Homo sapiens, Platelet, 10 μM ADP, concentration 5 μM, read-out: Aggregation inhibition rate %
  inhibition at 5 µM: 81.4%
[1]; Homo sapiens, Platelet, 10 μM ADP, concentration 10 μM, read-out: Aggregation inhibition rate %
  inhibition at 10 µM: 95.1%
[1]; [6]
  IC50: 97 nM
[1]; [7]
  IC50: 1080 nM
[1]; [8]
  IC50: 154 nM
[2]; 1 μg/ml collagen
  inhibitory effect on platelet aggregation induced by collagen: significant inhibitory effect
[2]; 1 μg/ml collagen, concentration 0.01 μM, 0.01 µM
  Aggregation inhibition rate %: 8.96% and 10.94%
[2]; 1 μg/ml collagen, concentration 0.3 μM, 0.3 µM
  Aggregation inhibition rate %: 79.10% and 44.78% and 54.69%
[2]; 1 μg/ml collagen, concentration 1 μM, 1 µM
  Aggregation inhibition rate %: 80.59% and 95.31%
[2]; Homo sapiens, Platelet, 1 μg/ml collagen, concentration 0.003 μM, read-out: Aggregation inhibition rate %
  inhibition at 0.003 µM: 5.97%
[2]; Homo sapiens, Platelet, 1 μg/ml collagen, concentration 0.01 μM, read-out: Aggregation inhibition rate %
  inhibition at 0.01 µM: 10.4%
[2]; Homo sapiens, Platelet, 1 μg/ml collagen, concentration 1 μM, read-out: Aggregation inhibition rate %
  inhibition at 1 µM: 95.9%
[2]; Homo sapiens, Platelet, 1 μg/ml collagen, concentration 3 μM, read-out: Aggregation inhibition rate %
  inhibition at 3 µM: 100%
[2]; Homo sapiens, Platelet, 1 μg/ml collagen, read-out: IC50 on platelet aggregation induced by collagen
  IC50: 157 nM
[2]; Homo sapiens, Platelet, column 1, read-out: IC50 of compound on collagen-induced platelet aggregation rate
  IC50: 95 nM
[2]; Homo sapiens, Platelet, column 2, read-out: IC50 of compound on collagen-induced platelet aggregation rate
  IC50: 233 nM
[2]; Homo sapiens, Platelet, column 3, read-out: IC50 of compound on collagen-induced platelet aggregation rate
  IC50: 143 nM
[3]
  IC50: 197 nM
[4]; 10 mg/kg intragastric, 4 hours before, blood flow 15 minutes, individual values
  Thrombus wet weight: 11.7 mg and 11.5 mg and 12.1 mg
[4]; intragastric administration
  weight of arterial thrombus in rats: significantly reduced
[5]; 0.5 U/ml thrombin, concentration 0.01 μM, 0.01 µM
  Aggregation inhibition rate %: 2.81%
[5]; 0.5 U/ml thrombin, concentration 0.1 μM, 0.1 µM
  Aggregation inhibition rate %: 46.03% and 40.98% and 65.21%
[5]; 0.5 U/ml thrombin, concentration 0.3 μM, 0.3 µM
  Aggregation inhibition rate %: 80.95% and 89.85%
[5]; 0.5 U/ml thrombin, concentration 1 μM, 1 µM
  Aggregation inhibition rate %: 95.83% and 97.33%
[5]; Homo sapiens, Platelet, 0.5 U/ml thrombin, concentration 0.003 μM, read-out: Aggregation inhibition rate %
  inhibition at 0.003 µM: 0%
[5]; Homo sapiens, Platelet, 0.5 U/ml thrombin, concentration 0.01 μM, read-out: Aggregation inhibition rate %
  inhibition at 0.01 µM: 3.08%
[5]; Homo sapiens, Platelet, 0.5 U/ml thrombin, concentration 0.3 μM, read-out: Aggregation inhibition rate %
  inhibition at 0.3 µM: 71.4%
[5]; Homo sapiens, Platelet, 0.5 U/ml thrombin, concentration 1 μM, read-out: Aggregation inhibition rate %
  inhibition at 1 µM: 85.7%
[5]; Homo sapiens, Platelet, 0.5 U/ml thrombin, concentration 3 μM, read-out: Aggregation inhibition rate %
  inhibition at 3 µM: 100%
[5]; Homo sapiens, Platelet, 0.5 U/ml thrombin, concentration 10 μM, read-out: Aggregation inhibition rate %
  inhibition at 10 µM: 100%
[5]; Homo sapiens, Platelet, 0.5 U/ml thrombin, concentration 20 μM, read-out: Aggregation inhibition rate %
  inhibition at 20 µM: 100%
[5]; [6]
  IC50: 194 nM
[5]; [7]
  IC50: 140 nM
[5]; [8]
  IC50: 78 nM
